These results are taken from US20120220600A1, “N-Oxide of 3-(2,6-dichloro-3,5-dimethoxy-phenyl) -1--1-methyl-urea” (priority 2009, published 2012).

Structures are written as SMILES. ≈ marks a conversion by molar mass, not a printed value.

Data set [1] is described as follows: Ionization constants (pKa1/pKa2). Format: physicochemical. The settings on record: ionization constant for acidity. The text has this: (§1) Certain physicochemical properties of the compounds, as measured, are provided below: […]
A short description of data set [2]: Solubility in buffer (pH 1). In kind it is physicochemical. The settings on record: pH 1, aqueous buffer.
From the text: as §1

The nature of data set [3]: In vitro metabolic stability in mouse liver microsomes. Format: in vitro ADME. Particulars: for microsomal CLint at 1 μM: mouse, liver microsomes. As to the method: (§2) The metabolism of drugs occurs mainly in the liver, which contains a wide variety of metabolic enzymes at concentrations higher than those observed in other organs. Metabolic stability or clearance (CL), particularly hepatic clearance (CLh), is a factor in determining drug concentration in blood. Generally, the higher the metabolic stability of a compound is, the lower the clearance of the compound.
(§3) The metabolic stability of each of Compounds 1 and 2 were determined at a concentration of 1 μM in mouse, rat, dog, monkey and human hepatic microsomal preparations. The compound tested, microsomal protein, and co-factors were combined, in duplicate, and incubated under appropriate conditions. Aliquots were removed at 0, 10 and 30 min, centrifuged and the supernatants analyzed by LC/MS/MS. Based on the percentage of the test compound remaining relative to the 0 min time point, the in vitro elimination rate constant, in vitro half-life (t1/2) and in vitro intrinsic clearance (CLint) parameters were calculate which allow for predicting the CLh values.

Data set [4] can be described thus: In vitro metabolic stability in rat liver microsomes. Format: in vitro ADME. The settings on record: for microsomal CLint at 1 μM: rat, liver microsomes. As to the method: as §2, §3
A short description of data set [5]: In vitro metabolic stability in dog liver microsomes. In kind it is in vitro ADME. The settings on record: for microsomal CLint at 1 μM: dog, liver microsomes. As to the method: as §2, §3
Data set [6] can be described thus: In vitro metabolic stability in monkey liver microsomes. Particulars: for microsomal CLint at 1 μM: monkey, liver microsomes. Format: in vitro ADME. The method, then: as §2, §3
Data set [7] is described as follows: In vitro metabolic stability in human liver microsomes. In kind it is in vitro ADME. The settings on record: for CLint Rank: 1 μM. As to the method:
as §2, §3

The target of the next data set is T1, hERG channels (Homo sapiens, UniProt Q12809).
T1 construct: expressed in transfected cells; host or cells: HEK293 (stably transfected), membrane preparation
Description: hERG radioligand binding assay ([3H]dofetilide competition). The settings on record: [3H]dofetilide binding, HEK293 cell membranes stably transfected with hERG. As to the method: The ability of Compounds 1 and 2 to inhibit the hERG (potassium channel) activity was tested using a radioligand binding assay in which test compounds competed for [^3H]dofetilide binding to a membrane preparation of HEK293 cell membranes stably transfected with hERG channels.

Data set [8] in a line: Permeability across Caco-2 cell monolayers. Format: in vitro ADME, human. Particulars: human, Caco-2, 10 μM, pH 7.4, 120 min; for Papp A→B at 120 min, 10 μM / Papp B→A at 120 min, 10 μM: 37° C.; for Papp A→B at 120 min, 10 μM: apical to basolateral; for Papp B→A at 120 min, 10 μM: basolateral to apical; for efflux ratio at 120 min, 10 μM: read-out: Papp B-A/A-B. The method, then:
(§4) The permeability of Compounds 1 and 2 across the intestinal barrier and the involvement of drug efflux transporters such as P-glycoprotein (P-gp, MDR-1) were assessed in vitro using the Caco-2 cell line. […] Caco-2 cells were seeded on PET (polyethylene terephthalate) filters in a 96 well format and cultured for 18-25 days to develop monolayers. Test compound solutions (10 μM in transport buffer) were added to either the apical (A) or basolateral (B) side of the Caco-2 cell monolayer to measure the membrane permeability from the A to B compartments [Papp(A-B)] or from the B to A compartments [Papp(B-A]. The assay was carried out in HBSS (Hank's Balanced Salts) buffer, pH 7.4 (for both sides) for 120 min at 37° C. Samples were taken from apical or basolateral compartments at scheduled times (0 min and 120 min) and quantified by LC/MS/MS. The results are presented in Table 4.

For a further data set, the system named is Caco-2 cell monolayers. Description: Permeability across Caco-2 cell monolayers. Format: in vitro ADME, human. Particulars: for Mechanism: Caco-2, based on B-A/A-B and clogP; for Permeability Ranking: Caco-2, based on Papp A-B. The method, then:
as §4

T1 sequence (Q12809 whole entry): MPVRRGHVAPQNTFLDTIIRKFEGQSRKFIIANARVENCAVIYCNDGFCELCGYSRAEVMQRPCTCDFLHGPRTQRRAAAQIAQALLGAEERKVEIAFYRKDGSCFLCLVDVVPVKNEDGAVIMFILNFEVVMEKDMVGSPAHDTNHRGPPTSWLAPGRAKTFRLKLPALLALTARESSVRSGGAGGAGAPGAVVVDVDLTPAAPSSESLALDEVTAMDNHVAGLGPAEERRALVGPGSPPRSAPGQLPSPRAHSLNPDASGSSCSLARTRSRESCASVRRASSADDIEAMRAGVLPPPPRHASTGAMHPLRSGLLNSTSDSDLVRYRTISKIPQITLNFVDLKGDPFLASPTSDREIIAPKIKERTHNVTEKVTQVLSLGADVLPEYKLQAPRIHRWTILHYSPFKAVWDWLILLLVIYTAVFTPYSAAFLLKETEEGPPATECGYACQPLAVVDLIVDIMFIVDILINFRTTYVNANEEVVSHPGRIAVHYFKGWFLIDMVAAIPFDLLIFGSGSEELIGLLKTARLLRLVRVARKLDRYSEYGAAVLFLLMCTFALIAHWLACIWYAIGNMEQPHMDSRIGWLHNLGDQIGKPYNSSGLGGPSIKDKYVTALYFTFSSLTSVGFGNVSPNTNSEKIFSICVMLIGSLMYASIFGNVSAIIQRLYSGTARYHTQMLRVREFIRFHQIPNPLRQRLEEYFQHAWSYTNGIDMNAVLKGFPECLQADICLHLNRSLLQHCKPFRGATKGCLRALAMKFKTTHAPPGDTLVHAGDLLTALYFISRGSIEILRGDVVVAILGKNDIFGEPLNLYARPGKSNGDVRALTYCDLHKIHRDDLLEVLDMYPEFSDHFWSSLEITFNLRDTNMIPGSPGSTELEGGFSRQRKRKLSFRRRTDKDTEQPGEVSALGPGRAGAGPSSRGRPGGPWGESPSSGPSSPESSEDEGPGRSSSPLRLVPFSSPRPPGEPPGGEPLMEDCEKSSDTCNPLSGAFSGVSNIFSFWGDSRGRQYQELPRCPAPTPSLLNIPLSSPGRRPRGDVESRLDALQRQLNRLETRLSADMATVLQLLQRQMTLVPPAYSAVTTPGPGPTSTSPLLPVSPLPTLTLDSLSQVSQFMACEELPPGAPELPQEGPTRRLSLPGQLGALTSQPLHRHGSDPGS

`CC[N+]1([O-])CCN(c2ccc(Nc3cc(N(C)C(=O)Nc4c(Cl)c(OC)cc(OC)c4Cl)ncn3)cc2)CC1` [Compound 1, N-Oxide of 3-(2,6-Dichloro-3,5-dimethoxy-phenyl)-1-{6-[4-(4-ethyl-piperazin-1-yl)-phenylamino]-pyrimidin-4-yl}-1-methyl-urea]: the pKa1 in data set [1] is 4.5. Also, the pKa2 in [1] was 3.2. Besides, the solubility in data set [2] came to 700 µM (≈ 404 µg/mL). Further, the half-life at 1 μM in data set [3] came out at 55.2 min; in data set [4] it was 46.8 min; in data set [5] it was 30.1 min; in data set [6] it was 35.7 min; in data set [7], 37.4 min. The “CLint Rank” value in data set [3] (1 μM), in data set [4] (1 μM), in data set [5] (1 μM), in data set [6] (1 μM) and in data set [7] was “low” each time. In addition, the microsomal CLint at 1 μM in [3] (read-out: CLint) was 25.1 µL/min/mg; in data set [4] (read-out: CLint), 29.6 µL/min/mg; in [5] (read-out: CLint), 46.1 µL/min/mg; in data set [6] (read-out: CLint), 38.9 µL/min/mg; in data set [7], 37.1 µL/min/mg. Further, the IC50 at hERG channels came out at 10.2 µM. In data set [8], this compound registered a Papp A→B at 120 min, 10 μM of 0.47 ×10⁻⁶ cm/s. The Papp B→A at 120 min, 10 μM in [8] was 9.51 ×10⁻⁶ cm/s. Besides, the efflux ratio at 120 min, 10 μM in data set [8] amounted to 20.2. Further, the Mechanism result in the data set on Caco-2 cell monolayers is given as “Efflux (Efflux: B-A/A-B ≧3)”. Also, the “Permeability Ranking” value in the data set on Caco-2 cell monolayers is recorded as “Low”.

In data set [1], `CCN1CCN(c2ccc(Nc3cc(N(C)C(=O)Nc4c(Cl)c(OC)cc(OC)c4Cl)ncn3)cc2)CC1` [Compound 2, 3-(2,6-Dichloro-3,5-dimethoxy-phenyl)-1-{6-[4-(4-ethyl-piperazin-1-yl)-phenylamino]-pyrimidin-4-yl}-1-methyl-urea] had a pKa1 of 8.2. This compound also showed a pKa2 in data set [1] of 3.4. The same compound yielded a solubility in data set [2] of 2000 µM (≈ 1120 µg/mL). Further, the half-life at 1 μM in data set [3] came to 10.3 min; in data set [4] it was 15.4 min; in data set [5], 3.5 min; in [6] it was 3.8 min; in data set [7] it was 35.2 min. Moreover, the microsomal CLint at 1 μM in data set [3] (read-out: CLint) is 134 µL/min/mg; in data set [3] (read-out: CLint Rank), 50 to 150 µL/min/mg; in data set [4] (read-out: CLint) it was 90.3 µL/min/mg; in data set [4] (read-out: CLint Rank), 50 to 150 µL/min/mg; in data set [5] (read-out: CLint), 395 µL/min/mg; in data set [5] (read-out: CLint Rank) it was more than 150 µL/min/mg. The microsomal CLint at 1 μM in data set [6] (read-out: CLint) is 364 µL/min/mg; in data set [6] (read-out: CLint Rank) it was more than 150 µL/min/mg; in data set [7], 39.4 µL/min/mg. In data set [7], the “CLint Rank” value was “low”. The same compound yielded an IC50 on hERG channels of 3 µM. The compound further came in with a Papp A→B at 120 min, 10 μM in [8] of 1.69 ×10⁻⁶ cm/s. The same compound came in with a Papp B→A at 120 min, 10 μM in data set [8] of 1.59 ×10⁻⁶ cm/s. The efflux ratio at 120 min, 10 μM in [8] is 0.94. Further, in the data set with Caco-2 cell monolayers, the Mechanism entry is “Passive”. For the same compound, in the data set on Caco-2 cell monolayers, the “Permeability Ranking” value was “Medium”.
